In brackets after ≈: the same amount, converted by molar mass.
Experiments:
Type in all cases: functional
Pseudomonas aeruginosa [1] = assay: Antibacterial activity against mexA deficient Pseudomonas aeruginosa TNP070
Pseudomonas aeruginosa [2] = assay: Antibacterial activity against Pseudomonas aeruginosa PAO4290 harboring leu-10 argF10 aph-9004 FP(-)
Pseudomonas aeruginosa [3] = assay: Antibacterial activity against mexA deficient Pseudomonas aeruginosa TNP070 transformant harboring pMEXA1 carrying wild type mexA gene
Pseudomonas aeruginosa [4] = assay: Antibacterial activity against mexA deficient Pseudomonas aeruginosa TNP070 transformant harboring pPlcMexA carrying chimeric mexA gene with plcH signal sequence
Pseudomonas aeruginosa [5] = assay: Antibacterial activity against tatC deficient Pseudomonas aeruginosa TNP080
Pseudomonas aeruginosa [6] = assay: Antibacterial activity against tatC deficient Pseudomonas aeruginosa TNP080 transformant harboring pMEXA1 carrying wild type mexA gene
Pseudomonas aeruginosa [7] = assay: Antibacterial activity against tatC deficient Pseudomonas aeruginosa TNP080 transformant harboring pPlcMexA carrying chimeric mexA gene with plcH signal sequence
Pseudomonas aeruginosa [8] = assay: Antibacterial activity against tatC deficient Pseudomonas aeruginosa TNP080 transformant harboring pTatPlcMexA carrying entire tatC gene and the chimeric mexA gene

| SMILES | MIC (Pseudomonas aeruginosa [1]) | MIC (Pseudomonas aeruginosa [2]) | MIC (Pseudomonas aeruginosa [3]) | MIC (Pseudomonas aeruginosa [4]) | MIC (Pseudomonas aeruginosa [5]) | MIC (Pseudomonas aeruginosa [6]) | MIC (Pseudomonas aeruginosa [7]) | MIC (Pseudomonas aeruginosa [8]) |
| --- | --- | --- | --- | --- | --- | --- | --- | --- |
| C[C@H]1[C@H](NC(=O)/C(=N\OC(C)(C)C(=O)O)c2csc(N)n2)C(=O)N1S(=O)(=O)O [AZTREONAM] | 0.25 µg/mL (≈ 0.574 µM) | 4 µg/mL (≈ 9.19 µM) | 2 µg/mL (≈ 4.59 µM) | 2 µg/mL (≈ 4.59 µM) | 0.13 µg/mL (≈ 0.299 µM) | 2 µg/mL (≈ 4.59 µM) | 0.25 µg/mL (≈ 0.574 µM) | 2 µg/mL (≈ 4.59 µM) |
| O=C(N[C@H](CO)[C@H](O)c1ccc([N+](=O)[O-])cc1)C(Cl)Cl [CHLORAMPHENICOL] | 8 µg/mL (≈ 24.8 µM) | 64 µg/mL (≈ 198 µM) | 32 µg/mL (≈ 99 µM) | 32 µg/mL (≈ 99 µM) | 4 µg/mL (≈ 12.4 µM) | 32 µg/mL (≈ 99 µM) | 4 µg/mL (≈ 12.4 µM) | 32 µg/mL (≈ 99 µM) |
